Measurements taken from US9464092B2, “Transient protection of normal cells during chemotherapy” (G1 Therapeutics, Inc., priority 2013, dated 2016).
Where two headings read alike, the source gives them in different places.

Tests used:
[1] = tested on: HS68 cells (human skin fibroblast cell line (Rb-positive)); test: G1 arrest (cellular G1 and S-phase) assay; type: cell-based
Description: For determination of cellular fractions in various stages of the cell cycle following various treatments, HS68 cells (human skin fibroblast cell line (Rb-positive)) were stained with propidium iodide staining solution and run on Dako Cyan Flow Cytometer. The fraction of cells in G0-G1 DNA cell cycle versus the fraction in S-phase DNA cell cycle was determined using FlowJo 7.2 0.2 analysis.
The compounds listed in Table 1 were tested for their ability to arrest HS68 cells at the G1 phase of the cell cycle.

CDK2/CyclinA = CDK2/CyclinA (Homo sapiens (Human), UniProt P24941); test: CDK2/CyclinA kinase assay (Nanosyn, Caliper microfluidic); type: biochemical; settings: for IC50: read-out: CDK2/CycA IC50
Description: (§1) Selected compounds disclosed herein were tested in CDK4/cyclinD1, CDK6/CycD3 CDK2/CycA and CDK2/cyclinE kinase assays by Nanosyn (Santa Clara, Calif.) to determine their inhibitory effect on these CDKs. The assays were performed using microfluidic kinase detection technology (Caliper Assay Platform). The compounds were tested in 12-point dose-response format in singlicate at Km for ATP. Phosphoacceptor substrate peptide concentration used was 1 μM for all assays and Staurosporine was used as the reference compound for all assays. Specifics of each assay are as described below:
CDK2/CyclinA: Enzyme concentration: 0.2 nM; ATP concentration: 50 μM; Incubation time: 3 hr.

CDK4/CyclinD1 = CDK4/CyclinD1 (Homo sapiens (Human), UniProt P11802); test: CDK4/CyclinD1 kinase assay (Nanosyn, Caliper microfluidic); type: biochemical; settings: Table 2; read-out: CDK4/CycD1 IC50
Description: as §1
CDK4/CyclinD1: Enzyme concentration: 1 nM; ATP concentration: 200 μM; Incubation time: 10 hr.

CDK2/CyclinE = CDK2/CyclinE (Homo sapiens (Human), UniProt P24941); test: CDK2/CyclinE kinase assay (Nanosyn, Caliper microfluidic); type: biochemical; settings: for IC50: read-out: CDK2/CycE IC50
Description: as §1, with “assays.” for “assays. Specifics of each assay are as described below:”

[2] = Mouse pharmacokinetics (oral gavage / intravenous); type: in vivo, mice; settings: for AUC(0-inf) / clearance / Vd: iv, 10 mg/kg i.v.; for Vd: read-out: Vss
HSPCs (bone marrow) = test: HSPC proliferation in bone marrow by EdU incorporation after oral gavage; type: in vivo, mice
Description: Mice were then sacrificed at the indicated times (0, 12, 24, 36, or 48 hours following compound administration), and bone marrow was harvested (n=3 mice per time point), as previously described (Johnson et al. J. Clin. Invest. (2010) 120(7), 2528-2536). Four hours before the bone marrow was harvested, mice were treated with 100 μg of EdU by intraperitoneal injection (Invitrogen). Bone marrow mononuclear cells were harvested and immunophenotyped using previously described methods and percent EdU positive cells were then determined (Johnson et al. J. Clin. Invest. (2010) 120(7), 2528-2536). In brief, HSPCs were identified by expression of lineage markers (Lin-), Sca1 (S+), and c-Kit (K+).
Four hours before animals were sacrificed and the bone marrow was harvested, mice were treated with 100 μg of EdU by intraperitoneal injection. Three mice per group were sacrificed at 12 hours and the remaining three animals per group were sacrificed at 24 hours. Results are shown in FIG. 6A as the ratio of EdU positive cells for treated animals at 12 or 24 hour time points compared to control.
Further experiments were completed with Compound T examining dose response and longer periods of compound treatment. […] […].
Both compounds were administered at 150 mg/kg by oral gavage. One hour prior to harvesting bone marrow, EdU was IP injected to label cycling cells. Bone marrow was harvested at 12, 24, 36, and 48 hours after compound treatment and the percentage of EdU positive HSPC cells was determined at each time point.

[3] = mouse, plasma, po, 30 mg/kg, mouse, 30 mg/kg oral gavage, read-out: t1/2 p.o. (converted)
[4] = plasma, mouse, 30 mg/kg oral gavage

CDK4/CyclinD1, sequence (P11802 whole entry, species assumed): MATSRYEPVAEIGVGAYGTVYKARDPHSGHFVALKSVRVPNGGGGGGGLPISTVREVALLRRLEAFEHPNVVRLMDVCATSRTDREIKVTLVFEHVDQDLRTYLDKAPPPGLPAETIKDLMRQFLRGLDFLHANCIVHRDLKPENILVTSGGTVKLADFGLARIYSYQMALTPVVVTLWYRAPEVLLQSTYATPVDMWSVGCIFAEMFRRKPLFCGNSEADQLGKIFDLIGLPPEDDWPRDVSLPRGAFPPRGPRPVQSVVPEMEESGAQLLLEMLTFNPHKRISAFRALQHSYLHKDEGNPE
CDK4/CyclinD1, sequence (P24385 whole entry partner, species assumed): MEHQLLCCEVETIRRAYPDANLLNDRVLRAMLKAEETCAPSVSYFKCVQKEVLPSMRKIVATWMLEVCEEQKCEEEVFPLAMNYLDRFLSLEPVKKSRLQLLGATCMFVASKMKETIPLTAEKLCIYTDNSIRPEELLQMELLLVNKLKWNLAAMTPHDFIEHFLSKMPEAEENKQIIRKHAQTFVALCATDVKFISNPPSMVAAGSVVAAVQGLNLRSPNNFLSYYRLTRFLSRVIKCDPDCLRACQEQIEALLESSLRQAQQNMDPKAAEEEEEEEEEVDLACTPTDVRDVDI

Row | Structure (SMILES) | EC50 ([1]; HS68 cells) | Fold Selectivity (CDK2/CycA/CDK4) (CDK2/CyclinA; Table 2) | IC50 (CDK2/CyclinA; Table 2) | IC50 (CDK4/CyclinD1) | Fold Selectivity (CDK2/CycE/CDK4) (CDK2/CyclinE; Table 2) | IC50 (CDK2/CyclinE; Table 2) | F ([2]; mouse) | half-life [2, 3] | AUC(0-inf) ([2]; plasma, mouse) | clearance ([2]; plasma, mouse) | Vd ([2]; plasma, mouse) | AUC [2, 4] | Cmax [2, 4] | Tmax [2, 4] | EC50 ([1]; Homo sapiens, Hs68, HS68 cells) | also measured
1 | CCC(C)CN1CCN(c2ccc(Nc3ncc4cc5n(c4n3)C3(CCCC3)CNC5=O)nc2)CC1 (centres unmarked) [AAA] | 275 nM | 918 | 2130 nM | 2.3 nM | 2591 | 6010 nM |  |  |  |  |  |  |  |  |  | 
2 | O=C1NCC2(CCCCC2)n2c1cc1cnc(Nc3ccc(N4CCNCC4)cn3)nc12 [Compound Q] |  |  |  |  |  |  | 2% | 48 min | 0.95 µM·h | 44 mL/min/kg | 5.2 L/kg | 0.15 µM·h | 160 nM | 30 min |  | oral bioavailability (in words) ([2]; mice): low; EdU incorporation into HSPCs at 12 and 24 hours compared to control (HSPCs (bone marrow); 150 mg/kg oral gavage): some reduction at 12 hours and started to return to baseline at 24 hours; G1-arrest of bone marrow stem cells (HSPC) (HSPCs (bone marrow); oral gavage, mice): dose dependent, transient, and reversible G1-arrest
3 | O=C1NCC2(CCCCC2)n2c1cc1cnc(Nc3ccc(N4CCC(N5CCOCC5)CC4)cn3)nc12 [Compound U, 2′-((5-(4-morpholinopiperidin-1-yl)pyridin-2-yl)amino)-7′,8′-dihydro-6′H-spiro[cyclohexane-1,9′-pyrazino[1′,2′:1,5]pyrrolo[2,3-d]pyrimidin]-6′-one] |  |  | 857 nM |  |  | 1460 nM | 67% | 180 min | 0.76 µM·h | 52 mL/min/kg | 3.4 L/kg | 3.3 µM·h | 4200 nM | 30 min |  | half-life ([2]; mouse, plasma, po, 30 mg/kg, mouse, read-out: plasma half-life following oral administration): 180 to 300 min; bioavailability ([2]; mouse, plasma, po, 30 mg/kg, read-out: oral bioavailability (F (%))): 52 to 80%; IC50 (CDK2/CyclinA; Table 3): 857 nM; IC50 (CDK2/CyclinE; Table 3): 1460 nM
4 | CCC(C)CN1CCN(c2ccc(Nc3ncc4cc5n(c4n3)C3(CCCC3)CNC5=O)nc2)CC1 (centres unmarked) [FFF] | 650 nM | 291 | 1370 nM | 4.7 nM | 966 | 4540 nM |  |  |  |  |  |  |  |  |  | 
5 | CC1CN(c2ccc(Nc3ncc4cc5n(c4n3)C3(CCCC3)CNC5=O)nc2)CC(C)N1CCC(C)(C)C (centres unmarked) [PPP] |  | 3402 | 2640 nM | 0.8 nM | 21263 | 16500 nM |  |  |  |  |  |  |  |  | 275 nM | 
6 | CCC(C)[C@@H]1CNC(=O)c2cc3cnc(Nc4ccc(N5CCN(C)CC5)cn4)nc3n21 (some centres unmarked) [VVV] |  |  |  | 7.4 nM | 589 | 4380 nM |  |  |  |  |  |  |  |  | 300 nM | 
